Target: C-C chemokine receptor type 2 (Homo sapiens, UniProt P41597)
Experiment: Receptor Binding Assay

C-C chemokine receptor type 2, sequence (P41597 whole entry): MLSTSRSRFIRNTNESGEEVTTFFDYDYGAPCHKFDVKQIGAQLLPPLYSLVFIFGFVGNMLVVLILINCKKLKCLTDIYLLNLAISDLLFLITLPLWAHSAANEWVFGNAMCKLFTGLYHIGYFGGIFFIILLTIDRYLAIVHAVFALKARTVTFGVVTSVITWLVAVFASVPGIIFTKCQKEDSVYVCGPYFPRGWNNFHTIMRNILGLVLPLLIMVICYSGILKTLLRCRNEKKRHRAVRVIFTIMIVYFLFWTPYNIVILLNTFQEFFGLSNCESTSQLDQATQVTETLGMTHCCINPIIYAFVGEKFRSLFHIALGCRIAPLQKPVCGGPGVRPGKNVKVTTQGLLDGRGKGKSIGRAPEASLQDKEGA

IC50 | SMILES
172 nM | C[S+]([O-])CC(O)[C@H]1CC[C@@H](N2CC(NC(=O)CNc3ncnc4ccc(C(F)(F)F)cc34)C2)CC1 (some centres not stated) [US9062048, 21]
1230 nM | CCC(NC(=O)NC)[C@H]1CC[C@@H](N2CC(NC(=O)CNc3ncnc4ccc(C(F)(F)F)cc34)C2)CC1 (some centres not stated) [US9062048, 142]

Source: BindingDB's records for patent US9062048 (Janssen Pharmaceutica, 2015)
